Values after ≈ are worked out from the molar mass of the structure shown.
Assays:
[1] = test system: LNCaP; test: Cytotoxicity against human LNCAP cells; format: functional; conditions: read-out: ED50 (the source's name)
[2] = test system: HT; test: Cytotoxicity against human HT cells; format: functional; conditions: read-out: ED50 (the source's name)
[3] = test system: Col2; test: Cytotoxicity against human Col2 cells; format: functional; conditions: read-out: ED50 (the source's name)
[4] = test system: Lu1; test: Cytotoxicity against human Lu1 cells; format: functional; conditions: read-out: ED50 (the source's name)
[5] = test system: KB; test: Cytotoxicity against human KB cells; format: functional; conditions: read-out: ED50 (the source's name)
[6] = test system: ZR-75-1; test: Cytotoxicity against human ZR-75-1 cells; format: functional; conditions: read-out: ED50 (the source's name)
[7] = test system: A-431; test: Cytotoxicity against human A431 cells; format: functional; conditions: read-out: ED50 (the source's name)
[8] = Cytotoxicity against human KBVIN cells in presence of vinblastine; format: functional; conditions: read-out: ED50 (the source's name)
[9] = test system: SK-MEL-2; test: Cytotoxicity against human SK-MEL-2 cells; format: functional; conditions: read-out: ED50 (the source's name)
[10] = Cytotoxicity against human KBVIN cells in absence of vinblastine; format: functional; conditions: read-out: ED50 (the source's name)
[11] = Cytotoxicity against human BC1 cells; format: functional; conditions: read-out: ED50 (the source's name)
[12] = Cytotoxicity against human U373 cells; format: functional, U-373MG ATCC; conditions: U373 MG, read-out: ED50 (the source's name)

| Structure (SMILES) | EC50 [1] [µg/mL] | EC50 [2] [µg/mL] | EC50 [3] [µg/mL] | EC50 [4] [µg/mL] | EC50 [5] [µg/mL] | EC50 [6] [µg/mL] | EC50 [7] [µg/mL] | EC50 [8] [µg/mL] | EC50 [9] [µg/mL] | EC50 [10] [µg/mL] | EC50 [11] [µg/mL] | EC50 [12] [µg/mL] |
| --- | --- | --- | --- | --- | --- | --- | --- | --- | --- | --- | --- | --- |
| C[C@H]1O[C@@H](O[C@H]2CC[C@]3(C=O)[C@H]4CC[C@]5(C)[C@@H](C6=CC(=O)OC6)CC[C@]5(O)[C@@H]4C=C[C@]3(O)C2)C[C@H](O)[C@H]1O | 0.1 (≈ 0.188 µM) | 0.05 (≈ 0.0939 µM) | 0.07 (≈ 0.131 µM) | 0.03 (≈ 0.0563 µM) | 0.04 (≈ 0.0751 µM) | 0.08 (≈ 0.15 µM) | 0.09 (≈ 0.169 µM) | 0.05 | 0.05 (≈ 0.0939 µM) | 0.06 (≈ 0.113 µM) | 0.04 (≈ 0.0751 µM) | 0.09 (≈ 0.169 µM) |
| CO[C@@H]1C[C@H](O[C@H]2CC[C@]3(C=O)[C@H]4CC[C@]5(C)[C@@H](C6=CC(=O)OC6)CC[C@]5(O)[C@@H]4C=C[C@]3(O)C2)O[C@H](C)[C@H]1O | 0.5 (≈ 0.915 µM) | 0.4 (≈ 0.732 µM) | 0.9 (≈ 1.65 µM) | 0.1 (≈ 0.183 µM) | 0.3 (≈ 0.549 µM) | 0.2 (≈ 0.366 µM) | 0.7 (≈ 1.28 µM) | 0.3 | 0.8 (≈ 1.46 µM) | 0.5 (≈ 0.915 µM) | 0.3 (≈ 0.549 µM) | 0.8 (≈ 1.46 µM) |
| C[C@H]1O[C@@H](O[C@H]2CC[C@]3(C=O)[C@H]4[C@H](O)C[C@]5(C)[C@H](C6=CC(=O)OC6)CC[C@]5(O)[C@@H]4C=C[C@]3(O)C2)C[C@H](O)[C@H]1O | 0.3 (≈ 0.547 µM) | 2.3 (≈ 4.19 µM) | 0.5 (≈ 0.911 µM) | 0.09 (≈ 0.164 µM) | 0.3 (≈ 0.547 µM) | 0.4 (≈ 0.729 µM) | 0.5 (≈ 0.911 µM) | 0.6 | 4.1 (≈ 7.47 µM) | 1.6 (≈ 2.92 µM) | 0.3 (≈ 0.547 µM) | 0.4 (≈ 0.729 µM) |

From ChEMBL document CHEMBL1159255, “Cardenolides from Nierembergia aristata” (1995)
